Measured values: patent publication US20100298141A1, “SUBSTITUTED PYRIDINE N-OXIDE HERBICIDES” (E. I. DU PONT DE NEMOURS AND COMPANY, priority 2007, published 2010)

What was measured:
blackgrass = assay: Test C pre-/postemergence test; assay type: in vivo, Alopecurus myosuroides; details: preemergence, 250 g ai/ha; scale 0 (no effect) to 100 (complete control)
Method in brief: (§1)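 Compounds in a non-phytotoxic solvent with surfactant applied preemergence to seeded pots and, at the same time, postemergence to plants 2–18 cm tall (1- to 4-leaf stage). Paddy tests: pots flooded to 3 cm, compound applied into the water, depth held throughout.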

corn = assay: Test C pre-/postemergence test; assay type: in vivo, Zea mays
Method in brief: as §1

woolly cupgrass = assay: Test C pre-/postemergence test; assay type: in vivo, Eriochloa villosa
Method in brief: as §1

bermudagrass = assay: Test F preemergence test; assay type: in vivo, Cynodon dactylon; details: scale 0 to 100
Method in brief: (§2)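 Test chemicals were formulated in a non-phytotoxic solvent mixture with surfactant and applied preemergence to planted seeds or postemergence to sugarcane plants. Plants were kept in a greenhouse for 14 to 21 days, then visually evaluated against controls.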

Surinam grass = assay: Test F preemergence test; assay type: in vivo, Brachiaria decumbens; details: scale 0 to 100
Method in brief: as §2

large crabgrass = assay: Test F preemergence test; assay type: in vivo, Digitaria sanguinalis; details: scale 0 to 100
Method in brief: as §2

goosegrass = assay: Test F preemergence test; assay type: in vivo, Eleusine indica; details: scale 0 to 100
Method in brief: as §2

kochia = assay: Test F preemergence test; assay type: in vivo, Kochia scoparia; details: scale 0 to 100
Method in brief: as §2

purple nutsedge = assay: Test F preemergence test; assay type: in vivo, Cyperus rotundus; details: scale 0 to 100
Method in brief: as §2

common ragweed = assay: Test F preemergence test; assay type: in vivo, Ambrosia elation; details: scale 0 to 100
Method in brief: as §2

mustard = assay: Test F preemergence test; assay type: in vivo, Brassica nigra; details: scale 0 to 100
Method in brief: as §2

barnyardgrass = assay: Test F preemergence test; assay type: in vivo, Echinochloa crus-galli
Method in brief: as §2

southern sandbur = assay: Test F preemergence test; assay type: in vivo, Cenchrus echinatus; details: scale 0 to 100
Method in brief: as §2

Italian ryegrass = assay: Test F preemergence test; assay type: in vivo, Lolium multiflorum; details: scale 0 to 100
Method in brief: as §2

broadleaf signalgrass = assay: Test F preemergence test; assay type: in vivo, Brachiaria platyphylla; details: scale 0 to 100
Method in brief: as §2

quackgrass = assay: Test F preemergence test; assay type: in vivo, Elytrigia repens; details: scale 0 to 100
Method in brief: as §2

[1] = 62 g ai/ha, Preemergence, scale 0 to 100
[2] = 125 g ai/ha, preemergence, scale 0 (no effect) to 100 (complete control)
[3] = Preemergence, 31 g ai/ha, scale 0 to 100 (0 no effect, 100 complete control)
[4] = preemergence, 250 g ai/ha, scale 0 (no effect) to 100 (complete control)

Cn1nc(OC(F)F)c(CS(=O)(=O)c2cccc[n+]2[O-])c1C(F)(F)F [Compound 80]
Blackgrass plant response rating (blackgrass): 90
Corn plant response rating (corn; [1]): 35
Corn plant response rating (corn; [2]): 90
Plant response rating, Corn (corn; [3]): 30
Corn plant response rating (corn; [4]): 98
Cupgrass, Woolly plant response rating (woolly cupgrass; [1]): 100
Cupgrass, Woolly plant response rating (woolly cupgrass; [2]): 100
Plant response rating, Cupgrass, Woolly (woolly cupgrass; [3]): 100
Cupgrass, Woolly plant response rating (woolly cupgrass; [4]): 100
Plant response rating, Bermudagrass (bermudagrass; 16 g ai/ha, preemergence): 50
Bermudagrass plant response rating (bermudagrass; 62 g ai/ha, Preemergence): 90
Bermudagrass plant response rating (bermudagrass; 125 g ai/ha, preemergence): 98
Plant response rating, Bermudagrass (bermudagrass; Preemergence, 31 g ai/ha): 80
Plant response rating, Surinam Grass (Surinam grass; 16 g ai/ha, preemergence): 0
Surinam Grass plant response rating (Surinam grass; 125 g ai/ha, preemergence): 100
Plant response rating, Surinam Grass (Surinam grass; Preemergence, 62 g ai/ha): 98
Plant response rating, Surinam Grass (Surinam grass; Preemergence, 31 g ai/ha): 80
Plant response rating, Crabgrass, Large (large crabgrass; 16 g ai/ha, preemergence): 40
Crabgrass, Large plant response rating (large crabgrass; 62 g ai/ha, Preemergence): 80
Crabgrass, Large plant response rating (large crabgrass; 125 g ai/ha, preemergence): 90
Plant response rating, Crabgrass, Large (large crabgrass; Preemergence, 31 g ai/ha): 80
Plant response rating, Goosegrass (goosegrass; 16 g ai/ha, preemergence): 80
Goosegrass plant response rating (goosegrass; 62 g ai/ha, Preemergence): 95
Goosegrass plant response rating (goosegrass; 125 g ai/ha, preemergence): 100
Plant response rating, Goosegrass (goosegrass; Preemergence, 31 g ai/ha): 85
Plant response rating, Kochia (kochia; 16 g ai/ha, preemergence): 0
Kochia plant response rating (kochia; 62 g ai/ha, Preemergence): 35
Kochia plant response rating (kochia; 125 g ai/ha, preemergence): 90
Plant response rating, Kochia (kochia; Preemergence, 31 g ai/ha): 0
Plant response rating, Purple Nutsedge (purple nutsedge; 16 g ai/ha, preemergence): 0
Purple Nutsedge plant response rating (purple nutsedge; 62 g ai/ha, Preemergence): 50
Purple Nutsedge plant response rating (purple nutsedge; 125 g ai/ha, preemergence): 80
Plant response rating, Ragweed (common ragweed; 16 g ai/ha, preemergence): 0
Ragweed plant response rating (common ragweed; 125 g ai/ha, preemergence): 90
Plant response rating, Ragweed (common ragweed; Preemergence, 31 g ai/ha): 0
Plant response rating, Black Mustard (mustard; 16 g ai/ha, preemergence): 0
Black Mustard plant response rating (mustard; 62 g ai/ha, Preemergence): 0
Black Mustard plant response rating (mustard; 125 g ai/ha, preemergence): 50
Plant response rating, Black Mustard (mustard; Preemergence, 31 g ai/ha): 0
Plant response rating, Barnyardgrass (barnyardgrass; 16 g ai/ha, preemergence, scale 0 to 100 (0 no effect, 100 complete control)): 85
Barnyardgrass plant response rating (barnyardgrass; [1]): 95
Barnyardgrass plant response rating (barnyardgrass; 125 g ai/ha, preemergence, scale 0 to 100): 100
Plant response rating, Barnyardgrass (barnyardgrass; Preemergence, 31 g ai/ha, scale 0 to 100): 90
Plant response rating, Sandbur (southern sandbur; 16 g ai/ha, preemergence): 65
Sandbur plant response rating (southern sandbur; 125 g ai/ha, preemergence): 100
Plant response rating, Sandbur (southern sandbur; Preemergence, 62 g ai/ha): 95
Plant response rating, Sandbur (southern sandbur; Preemergence, 31 g ai/ha): 80
Plant response rating, Ryegrass, Italian (Italian ryegrass; 16 g ai/ha, preemergence): 15
Ryegrass, Italian plant response rating (Italian ryegrass; 125 g ai/ha, preemergence): 65
Plant response rating, Ryegrass, Italian (Italian ryegrass; Preemergence, 62 g ai/ha): 65
Plant response rating, Ryegrass, Italian (Italian ryegrass; Preemergence, 31 g ai/ha): 20
Plant response rating, Signalgrass (broadleaf signalgrass; 16 g ai/ha, preemergence): 25
Signalgrass plant response rating (broadleaf signalgrass; 125 g ai/ha, preemergence): 98
Plant response rating, Signalgrass (broadleaf signalgrass; Preemergence, 62 g ai/ha): 75
Plant response rating, Signalgrass (broadleaf signalgrass; Preemergence, 31 g ai/ha): 25
Plant response rating, Quackgrass (quackgrass; 16 g ai/ha, preemergence): 10
Quackgrass plant response rating (quackgrass; 62 g ai/ha, Preemergence): 65
Quackgrass plant response rating (quackgrass; 125 g ai/ha, preemergence): 75
Plant response rating, Quackgrass (quackgrass; Preemergence, 31 g ai/ha): 65
